Target: T1, human topoisomerase IIα (rhTopoIIα ATPase domain) (Homo sapiens, UniProt P11388)
T1 construct: gene TOP2A; ATPase domain (45 kDa, recombinant, pET28b-hTopoIIα-ATPase)
Experiment: ADP-Glo ATPase assay with purified recombinant ATPase domain
Assay type: biochemical
Settings: read-out: IC50 against rhTopoIIα ATPase domain

T1 sequence (P11388 29-428 limits assumed): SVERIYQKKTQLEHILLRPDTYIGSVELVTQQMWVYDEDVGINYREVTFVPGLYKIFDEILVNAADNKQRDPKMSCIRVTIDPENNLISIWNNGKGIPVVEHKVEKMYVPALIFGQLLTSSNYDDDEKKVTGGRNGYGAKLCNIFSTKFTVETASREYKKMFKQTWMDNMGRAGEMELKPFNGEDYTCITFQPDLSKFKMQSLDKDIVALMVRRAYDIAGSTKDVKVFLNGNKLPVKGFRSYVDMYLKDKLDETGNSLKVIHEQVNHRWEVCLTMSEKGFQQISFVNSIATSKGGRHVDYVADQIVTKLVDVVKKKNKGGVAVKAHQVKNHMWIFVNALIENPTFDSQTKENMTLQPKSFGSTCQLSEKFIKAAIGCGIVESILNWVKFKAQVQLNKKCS

Cc1ccc2c(c1CCC(O)C(C)(C)O)C(=O)C(=O)C(C(C)C)=C2 (centres unmarked) [Salvicine]
IC50: 326 ± 6.6 nM

COc1cc(O)c(C(=O)/C=C/c2cc(OC)c(OC)c(OC)c2)c(OC)c1 [3d, chalcone 3d]
IC50: 7.5 ± 4.2 nM
